Data published in PubChem BioAssay AID248 (DTP/NCI, 2004).
“And” between values parts separate entries of the source, which are not always exact repeats. Equal entries are not always repeated. Inconclusive results and toxic doses are left out. Rule as the data show it: active = T/C of 150% or more; inactive = T/C below 125%.

Test system: L1210 leukemia ip in BDF1 mice, survival T/C
Assay: NCI In Vivo Anticancer Drug Screen. Data for tumor model L1210 Leukemia (intraperitoneal) in B6D2F1 (BDF1) mice
Conditions: endpoint: mean survival time, higher = longer survival
How it was run: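 Each compound was tested against a transplantable tumor grown in mice. The endpoint was survival, with treated animals benchmarked against vehicle controls as a simple ratio.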

[1] = dose: 100.0 mg/kg/injection, schedule: Q04DX002 (ip), vehicle: Klucel (hydroxypropylcellulose) (HPC)
[2] = dose: 200.0 mg/kg/injection, schedule: Q04DX002 (ip), vehicle: Klucel (hydroxypropylcellulose) (HPC)
[3] = dose: 400.0 mg/kg/injection, schedule: Q04DX002 (ip), vehicle: Klucel (hydroxypropylcellulose) (HPC)
[4] = dose: 100.0 mg/kg/injection, schedule: Q01DX009 (ip), vehicle: saline with Tween-80
[5] = dose: 200.0 mg/kg/injection, schedule: Q01DX009 (ip), vehicle: saline with Tween-80
[6] = dose: 400.0 mg/kg/injection, schedule: Q01DX009 (ip), vehicle: saline with Tween-80
[7] = dose: 100.0 mg/kg/injection, schedule: Q01DX001 (ip), vehicle: saline
[8] = dose: 200.0 mg/kg/injection, schedule: Q01DX001 (ip), vehicle: saline
[9] = dose: 400.0 mg/kg/injection, schedule: Q01DX001 (ip), vehicle: saline
[10] = dose: 100.0 mg/kg/injection, schedule: Q01DX001 (ip), vehicle: carboxymethylcellulose (CMC)
[11] = dose: 200.0 mg/kg/injection, schedule: Q01DX001 (ip), vehicle: carboxymethylcellulose (CMC)
[12] = dose: 400.0 mg/kg/injection, schedule: Q01DX001 (ip), vehicle: carboxymethylcellulose (CMC)
[13] = dose: 100.0 mg/kg/injection, schedule: Q01DX009 (ip), vehicle: Klucel (hydroxypropylcellulose) (HPC)
[14] = dose: 100.0 mg/kg/injection, schedule: Q04DX003 (ip), vehicle: Klucel (hydroxypropylcellulose) (HPC)
[15] = dose: 200.0 mg/kg/injection, schedule: Q01DX009 (ip), vehicle: Klucel (hydroxypropylcellulose) (HPC)
[16] = dose: 200.0 mg/kg/injection, schedule: Q04DX003 (ip), vehicle: Klucel (hydroxypropylcellulose) (HPC)
[17] = dose: 400.0 mg/kg/injection, schedule: Q01DX009 (ip), vehicle: Klucel (hydroxypropylcellulose) (HPC)
[18] = dose: 400.0 mg/kg/injection, schedule: Q04DX003 (ip), vehicle: Klucel (hydroxypropylcellulose) (HPC)
[19] = dose: 100.0 mg/kg/injection, schedule: Q04DX002 (ip), vehicle: saline with Tween-80
[20] = dose: 200.0 mg/kg/injection, schedule: Q04DX002 (ip), vehicle: saline with Tween-80
[21] = dose: 400.0 mg/kg/injection, schedule: Q04DX002 (ip), vehicle: saline with Tween-80
[22] = dose: 100.0 mg/kg/injection, schedule: Q04DX003 (ip), vehicle: saline with Tween-80
[23] = dose: 200.0 mg/kg/injection, schedule: Q04DX003 (ip), vehicle: saline with Tween-80
[24] = dose: 100.0 mg/kg/injection, schedule: Q04DX002 (ip), vehicle: saline
[25] = dose: 200.0 mg/kg/injection, schedule: Q04DX002 (ip), vehicle: saline

Measured: T/C

CCc1cc2oc(C)c(C)c2c(N=Nc2ccc(Cl)cc2)c1O
inactive: [1] 99 % of control | [2] 96 % of control | [3] 99 % of control

N#C/C(=C/c1ccccc1Cl)C(N)=O
inactive: [4] 100 % of control | [1] 100 % of control | [5] 94 % of control | [2] 93 % of control | [6] 94 % of control | [3] 107 % of control

CC(=O)Oc1ccc(CCN(C)C2CC3CCC2(C)C3(C)C)cc1OC(C)=O (stereo not drawn)
inactive: [7] 110 % of control | [8] 93 % of control | [9] 100 % of control

Oc1ccc2ccccc2c1/C=N/Nc1ccc2ccccc2n1
inactive: dose: 25.0 mg/kg/injection, schedule: Q01DX001 (ip), vehicle: saline with Tween-80 97 % of control | dose: 50.0 mg/kg/injection, schedule: Q01DX001 (ip), vehicle: saline with Tween-80 101 % of control | dose: 100.0 mg/kg/injection, schedule: Q01DX001 (ip), vehicle: saline with Tween-80 98 % of control

O/N=C1\c2ccccc2-c2cc(Br)ccc21
inactive: [10] 95 % of control | [11] 95 % of control | [12] 90 % of control

O=C(Oc1ccccc1Cl)c1ccc(Cl)c(Cl)c1
inactive: [13] 98 % of control | [14] 95 % of control | [15] 93 % of control | [16] 90 % of control | [17] 90 % of control | [18] 90 % of control

CN(C)c1ccccc1C(=O)N/N=C\c1ccc(O)c(O)c1
inactive: [4] 87 % of control | [19] 94 % of control | [5] 87 % of control | [20] 94 % of control | [6] 90 % of control | [21] 90 % of control

COc1cc(C=Nc2ccc(C)c(C)c2)ccc1OC(=O)c1ccccc1
inactive: [19] 106 % of control | [20] 106 % of control | [21] 95 % of control

CC(C)CCCC(C)C1CCC2(C)C3=C(C(=O)CC12C)C1(C)CCC(O)C(C)(C)C1/C(=N\O)C3=O (stereo not drawn)
inactive: [22] 94 % of control | [23] 96 % of control | dose: 400.0 mg/kg/injection, schedule: Q04DX003 (ip), vehicle: saline with Tween-80 97 % of control

CCOC(=O)C1=NN(c2ccccc2)C(=O)C1N=Nc1ccc(S(=O)(=O)Nc2nccc(C)n2)cc1 (stereo not drawn)
inactive: [7] 95 % of control | [8] 101 % of control | [9] 102 % of control

C/C(CC(C)C)=N\NC(=O)Nc1cccc(Cl)c1C
inactive: dose: 100.0 mg/kg/injection, schedule: Q01DX001 (ip), vehicle: Klucel (hydroxypropylcellulose) (HPC) 86 % of control | [13] 99 % of control and 103 % of control | [1] 98 % of control and 92 % of control | dose: 200.0 mg/kg/injection, schedule: Q01DX001 (ip), vehicle: Klucel (hydroxypropylcellulose) (HPC) 93 % of control | [15] 96 % of control and 99 % of control | [2] 103 % of control and 92 % of control | dose: 400.0 mg/kg/injection, schedule: Q01DX001 (ip), vehicle: Klucel (hydroxypropylcellulose) (HPC) 93 % of control | [17] 93 % of control and 95 % of control | [3] 95 % of control

C[N+]1(N)CCCCCC1
inactive: [24] 94 % of control | [25] 113 % of control | dose: 400.0 mg/kg/injection, schedule: Q04DX002 (ip), vehicle: saline 87 % of control

CCCOP(=O)(OCCC)C(OC(=O)C(C)(C)C)=C(C)C
inactive: [22] 92 % of control | [23] 96 % of control

CCCCCCCCCCCCCCCCCCNC(=O)c1c(Br)c(Br)cc(Br)c1C(=O)O
inactive: dose: 25.0 mg/kg/injection, schedule: Q04DX002 (ip), vehicle: Klucel (hydroxypropylcellulose) (HPC) 104 % of control | dose: 50.0 mg/kg/injection, schedule: Q04DX002 (ip), vehicle: Klucel (hydroxypropylcellulose) (HPC) 93 % of control | [1] 96 % of control | [2] 98 % of control and 87 % of control | [3] 90 % of control

O=[N+]([O-])c1ccc(OCCBr)c(Cl)c1
inactive: [14] 92 % of control | [16] 97 % of control | [18] 96 % of control

Nc1cc(C(=O)O)c2ccccc2c1
inactive: [7] 89 % of control | [8] 106 % of control | [9] 95 % of control

CC1CC2CCCC(O)=C2C(=O)O1 (stereo not drawn)
inactive: [7] 102 % of control | [8] 102 % of control | [9] 105 % of control

[O-][n+]1ccc(-c2ccccc2)cc1
inactive: [24] 107 % of control | [25] 96 % of control

Cc1cc2c(c(O)c1CN1CCOCC1)C1=C(CCCC1)C(C)(C)O2
inactive: [10] 107 % of control | [11] 91 % of control | [12] 86 % of control

OC1(C#CC2(O)c3ccccc3-c3ccccc32)c2ccccc2-c2ccccc21
inactive: [13] 93 % of control | [14] 106 % of control | [15] 97 % of control | [16] 106 % of control | [17] 93 % of control | [18] 100 % of control

CCCCC1C(=O)OC(C(C)C(O)CCCN=C(N)N)C(C)C=C(C)CCCCC(O)CC(O)CC(O)CC(O)CC(O)C(OC2OC(CO)C(O)C2O)C=C(C)C(O)CCCC(O)CCCC(O)CCC(C)C1O (stereo not drawn)
inactive: dose: 0.71 mg/kg/injection, schedule: Q01DX Z (ip), vehicle: carboxymethylcellulose (CMC) 96 % of control

CC(C)OC(=O)Oc1c(Cl)c(Cl)c(Cl)c(Cl)c1Cl
inactive: [13] 95 % of control | [1] 105 % of control | [15] 98 % of control | [2] 94 % of control | [3] 98 % of control

CCCCSc1nc(=O)[nH]nc1SCc1ccccc1
inactive: [7] 98 % of control | [8] 93 % of control | [9] 95 % of control

Cc1ccc(Nc2ccc(Nc3ccc(CCO)cc3)c3c2C(=O)c2ccccc2C3=O)cc1
inactive: [13] 96 % of control | [15] 100 % of control | [17] 89 % of control

N#C/C(=C\c1ccc(-c2ccccc2)cc1)c1ccc([N+](=O)[O-])cc1
inactive: dose: 12.5 mg/kg/injection, schedule: Q01DX009 (ip), vehicle: saline with Tween-80 90 % of control | dose: 12.5 mg/kg/injection, schedule: Q04DX003 (ip), vehicle: saline with Tween-80 95 % of control | dose: 25.0 mg/kg/injection, schedule: Q01DX009 (ip), vehicle: saline with Tween-80 88 % of control | dose: 25.0 mg/kg/injection, schedule: Q04DX003 (ip), vehicle: saline with Tween-80 93 % of control | dose: 50.0 mg/kg/injection, schedule: Q04DX003 (ip), vehicle: saline with Tween-80 88 % of control

CCCNC(=O)Nc1ccc(S(N)(=O)=O)cc1
inactive: [1] 97 % of control | [2] 97 % of control | [3] 87 % of control

O=[N+]([O-])c1ccc2c(c1)C(Br)c1ccccc1-2 (stereo not drawn)
inactive: [13] 89 % of control | [14] 95 % of control | [15] 94 % of control | [16] 92 % of control | [18] 94 % of control
